Assay results taken from patent US20200016136A1 (VIIV HEALTHCARE UK (NO. 5) LIMITED, priority 2017, published 2020).

test system: NL-RLuc virus (recombinant NL4-3 HIV with Renilla Luciferase gene); assay: Inhibition of HIV replication (NL-RLuc virus in MT-2 cells, luciferase readout); type: cell-based, Human immunodeficiency virus (HIV); conditions: MT2, 120 h
From the text: Inhibition of HIV Replication:
A recombinant NL-RLuc proviral clone was constructed in which a section of the nef gene form NL4-3 was replaced with the Renilla Luciferase gene. This virus is fully infectious and can undergo multiple cycles of replication in cell culture. In addition, the luciferous reporter provides a simple and easy method for quantitating the extent of virus growth and consequently, the antiviral activity of test compounds. The plasmid pNLRLuc contains the proviral NL-Rluc DNA cloned into pUC18 at the PvuII site. The NL-RLuc virus was prepared by transfection of 293T cells with the plasmid pNLRLuc. Transfections were performed using the LipofectAMINE PLUS kit form Invitrogen (Carlsbad, Calif.) according to the manufacturer and the virus generated was titered in MT-2 cells. For susceptibility analyses, the titrated virus was used to infect MT-2 cells in the presence of compound, and after 5 days of incubation, cells were processed and quantitated for virus growth by the amount of expressed luciferase. Assay media was RPMI 1640 supplemented with 10% heat inactivated fetal bovine serum (FBS), 100 units/ml penicillin G/100 units/ml streptomycin, 10 mM HEPES buffer pH 7.55 and 2 mM L-glutamine. The results form at least 2 experiments were used to calculate the EC50 values. Luciferase was quantitated using the Dual Luciferase kit form Promega (Madison, Wis.). Susceptibility of viruses to compounds was determined by incubation in the presence of serial dilutions of the compound. The 50% effective concentration (EC50) was calculated by using the exponential form of the median effect equation where (Fa)=1/[1+(ED50/drug conc.)^m](Johnson V A, Byington R T. Infectivity Assay. In Techniques in HIV Research. ed. Aldovini A, Walker B D. 71-76. New York: Stockton Press. 1990).

First: Cc1cccc(N2CCc3cc(-c4c(C)nc(C)c([C@H](OC(C)(C)C)C(=O)O)c4N4CCC(C)(C)CC4)ccc3C2)n1 [Example 89, (S)-2-(tert-Butoxy)-2-(4-(4,4-dimethylpiperidin-1-yl)-2,6-dimethyl-5-(2-(6-methylpyridin-2-yl)-1,2,3,4-tetrahydroisoquinolin-6-yl)pyridin-3-yl)acetic Acid]
Second: Cc1nc(C)c([C@H](OC(C)(C)C)C(=O)O)c(N2CCC(C)(C)CC2)c1-c1ccc2c(c1)CCN(c1nccc(N(C)C)n1)C2 [Example 17, (2S)-2-(tert-Butoxy)-2-(5-{2-[4-(dimethylamino)pyrimidin-2-yl]-1,2,3,4-tetrahydroisoquinolin-6-yl}-4-(4,4-dimethylpiperidin-1-yl)-2,6-dimethylpyridin-3-yl)acetic Acid]
The EC50 of the first is 3-fold higher: 3 nM for the first, 1 nM for the second. The second is the more potent here.

First: Cc1nc(C)c([C@H](OC(C)(C)C)C(=O)O)c(N2CCC(C)(C)CC2)c1-c1ccc2c(c1)CCN(c1nccc(N3CCC(C(C)(C)O)CC3)n1)C2 [Example 70, (S)-2-(tert-Butoxy)-2-(4-(4,4-dimethylpiperidin-1-yl)-5-(2-(4-(4-(2-hydroxypropan-2-yl)piperidin-1-yl)pyrimidin-2-yl)-1,2,3,4-tetrahydroisoquinolin-6-yl)-2,6-dimethylpyridin-3-yl)acetic Acid]
Second: Cc1nc(C)c([C@H](OC(C)(C)C)C(=O)O)c(N2CCC(C)(C)CC2)c1-c1ccc2c(c1)CCN(c1ccnc(N3CCCCC3)n1)C2 [Example 22, (2S)-2-(tert-Butoxy)-2-[4-(4,4-dimethylpiperidin-1-yl)-2,6-dimethyl-5-{2-[2-(piperidin-1-yl)pyrimidin-4-yl]-1,2,3,4-tetrahydroisoquinolin-6-yl}pyridin-3-yl]acetic Acid]
The EC50 of the first is 1.7-fold higher: 5 nM for the first, 3 nM for the second. The second is the more potent here.

Going from `Cc1nc(C)c([C@H](OC(C)(C)C)C(=O)O)c(N2CCC(C)(C)CC2)c1-c1ccc2c(c1)CCN(c1ccnc(N3C4CCCC3COC4)n1)C2` [Example 36, (2S)-2-(tert-Butoxy)-2-[4-(4,4-dimethylpiperidin-1-yl)-2,6-dimethyl-5-[2-(2-{3-oxa-9-azabicyclo[3.3.1]nonan-9-yl}pyrimidin-4-yl)-1,2,3,4-tetrahydroisoquinolin-6-yl]pyridin-3-yl]acetic Acid] to `Cc1nc(C)c([C@H](OC(C)(C)C)C(=O)O)c(N2CCC(C)(C)CC2)c1-c1ccc2c(c1)CCN(c1ccnc(N3CCS(=O)(=O)CC3)n1)C2` [Example 45, (S)-2-(tert-Butoxy)-2-(4-(4,4-dimethylpiperidin-1-yl)-5-(2-(2-(1,1-dioxidothiomorpholino)pyrimidin-4-yl)-1,2,3,4-tetrahydroisoquinolin-6-yl)-2,6-dimethylpyridin-3-yl)acetic Acid], the EC50 rises from 3 nM to 8 nM (2.7-fold).

Going from `Cc1nc(C)c([C@H](OC(C)(C)C)C(=O)O)c(N2CCC(C)(C)CC2)c1-c1ccc2c(c1)CCN(c1cc(N(C)CCCN(C)C)ncn1)C2` [Example 140, (S)-2-(tert-Butoxy)-2-(5-(2-(6-((3-(dimethylamino)propyl)(methyl)amino)pyrimidin-4-yl)-1,2,3,4-tetrahydroisoquinolin-6-yl)-4-(4,4-dimethylpiperidin-1-yl)-2,6-dimethylpyridin-3-yl)acetic Acid] to `Cc1nc(CO)c(-c2ccc3c(c2)CCN(c2nccc(-c4cnccn4)n2)C3)c(N2CCC(C)(C)CC2)c1[C@H](OC(C)(C)C)C(=O)O` [Example 165, (S)-2-(tert-Butoxy)-2-(4-(4,4-dimethylpiperidin-1-yl)-6-(hydroxymethyl)-2-methyl-5-(2-(4-(pyrazin-2-yl)pyrimidin-2-yl)-1,2,3,4-tetrahydroisoquinolin-6-yl)pyridin-3-yl)acetic Acid], the EC50 falls from 35 nM to 2 nM (18-fold). The second is the more potent here.

First: CC1(C)CCN(c2c(-c3ccc4c(c3)CCN(c3ncnc5c3oc3ccccc35)C4)c(N)nc(Cl)c2[C@H](OC(C)(C)C)C(=O)O)CC1 [Example 100, (S)-2-(6-Amino-5-(2-(benzofuro[3,2-d]pyrimidin-4-yl)-1,2,3,4-tetrahydroisoquinolin-6-yl)-2-chloro-4-(4,4-dimethylpiperidin-1-yl)pyridin-3-yl)-2-(tert-butoxy)acetic Acid]
Second: Cc1nc(CN2CCC2)c(-c2ccc3c(c2)CCN(c2ncnc4c2oc2ccccc24)C3)c(N2CCC(C)(C)CC2)c1[C@H](OC(C)(C)C)C(=O)O [Example 160, (S)-2-(6-(Azetidin-1-ylmethyl)-5-(2-(benzofuro[3,2-d]pyrimidin-4-yl)-1,2,3,4-tetrahydroisoquinolin-6-yl)-4-(4,4-dimethylpiperidin-1-yl)-2-methylpyridin-3-yl)-2-(tert-butoxy)acetic Acid]
The EC50 of the first is 5-fold lower: 4 nM for the first, 20 nM for the second.

`Cc1nc(CN2CCC(C)(C)CC2)c(-c2ccc3c(c2)CCN(c2ncnc4c2oc2ccccc24)C3)c(N2CCC(C)(C)CC2)c1[C@H](OC(C)(C)C)C(=O)O` [Example 161, (S)-2-(5-(2-(Benzofuro[3,2-d]pyrimidin-4-yl)-1,2,3,4-tetrahydroisoquinolin-6-yl)-4-(4,4-dimethylpiperidin-1-yl)-6-((4,4-dimethylpiperidin-1-yl)methyl)-2-methylpyridin-3-yl)-2-(tert-butoxy)acetic Acid] and `Cc1nc(CN2CCC3(CCC3)CC2)c(-c2ccc3c(c2)CCN(c2ncnc4c2oc2ccccc24)C3)c(N2CCC(C)(C)CC2)c1[C@H](OC(C)(C)C)C(=O)O` [Example 159, (S)-2-(6-(7-Azaspiro[3.5]nonan-7-ylmethyl)-5-(2-(benzofuro[3,2-d]pyrimidin-4-yl)-1,2,3,4-tetrahydroisoquinolin-6-yl)-4-(4,4-dimethylpiperidin-1-yl)-2-methylpyridin-3-yl)-2-(tert-butoxy)acetic Acid] are the same in EC50: 1 nM for the first, 1 nM for the second.

`Cc1cccc(Cl)c1CN1CCc2cc(-c3c(NCCN4CCCCC4)nc(C)c([C@H](OC(C)(C)C)C(=O)O)c3N3CCC(C)(C)CC3)ccc2C1` [Example 4, (S)-2-(tert-Butoxy)-2-(5-(2-(2-chloro-6-methylbenzyl)-1,2,3,4-tetrahydroisoquinolin-6-yl)-4-(4,4-dimethylpiperidin-1-yl)-2-methyl-6-((2-(piperidin-1-yl)ethyl)amino)pyridin-3-yl)acetic Acid] and `COCCNc1nc(C)c([C@H](OC(C)(C)C)C(=O)O)c(N2CCC(C)(C)CC2)c1-c1ccc2c(c1)CCN(Cc1c(C)cccc1Cl)C2` [Example 2, (S)-2-(tert-Butoxy)-2-(5-(2-(2-chloro-6-methylbenzyl)-1,2,3,4-tetrahydroisoquinolin-6-yl)-4-(4,4-dimethylpiperidin-1-yl)-6-((2-methoxyethyl)amino)-2-methylpyridin-3-yl)acetic Acid] are the same in EC50: 4 nM for the first, 4 nM for the second.

Going from `CCC(C)(C)O[C@H](C(=O)O)c1c(C)ncc(-c2ccc3c(c2)CCN(Cc2c(C)cccc2Cl)C3)c1N1CCC(C)(C)CC1` [Example 53, (2S)-2-(5-{2-[(2-Chloro-6-methylphenyl)methyl]-1,2,3,4-tetrahydroisoquinolin-6-yl}-4-(4,4-dimethylpiperidin-1-yl)-2-methylpyridin-3-yl)-2-[(2-methylbutan-2-yl)oxy]acetic Acid] to `Cc1cccc(Cl)c1CN1CCc2cc(-c3c(CNCCCc4ccccc4)nc(C)c([C@H](OC(C)(C)C)C(=O)O)c3N3CCC(C)(C)CC3)ccc2C1` [Example 154, (S)-2-(tert-Butoxy)-2-(5-(2-(2-chloro-6-methylbenzyl)-1,2,3,4-tetrahydroisoquinolin-6-yl)-4-(4,4-dimethylpiperidin-1-yl)-2-methyl-6-(((3-phenylpropyl)amino)methyl)pyridin-3-yl)acetic Acid], the EC50 rises from 6 nM to 97 nM (16-fold). The first is the more potent here.
